Assay results published in patent publication US20040122109A1, “Preparation for hair and/or scalp” (priority 2001, published 2004).

Tests used:
C3H mice = experiment: Hair restoration test: hair growth score on the shaved back of C3H mice; assay type: in vivo, mouse; conditions: for Hair growth score of C3H mouse, before application: 7-week old male C3H mice in telogen, shaved back, baseline, score 1-5 (1 = skin pink, 5 = hair growth in 60% or more); for Hair growth score of C3H mouse, before application / Hair growth score of C3H mouse, after application: n = 7, Average ± S.D.; for Hair growth score of C3H mouse, after application: 10% in PEG1000 applied to shaved portion once a day, total of 14 times, score 1-5 (higher = more hair growth); for Hair restoration activity (in words): C3H mice, 10% in PEG1000, 14 applications
Source text: The back of each of 7-week old male C3H mice in the telogen period of the hair cycle was carefully shaved, and then groups of seven mice each without wounds at the backs were subjected to a test. In a control group, only polyethylene glycol 1000 (PEG1000) used as a base was applied to each mouse, while in an evaluation group, 10% oxidized coenzyme Q10 or 10% reduced coenzyme Q10 (reduced coenzyme Q10:oxidized coenzyme Q10=95:5) was applied to the shaved portion once a day (total of 14 times). After the application, the back of each mouse was evaluated based on the scores below to evaluate the hair restoration activity of a compound.
2; Less than 30% of the shaved portion was discolored to gray.

hairless rats = experiment: Prevention of hair removal: hair removal score of hairless rats; assay type: in vivo, rat; conditions: for Hair removal score of hairless rat, before application: 4-week old male hairless rats in pilose period, baseline, score 1-5 (1 = no hair removal, 5 = hair removal in 60% or more); for Hair removal score of hairless rat, before application / Hair removal score of hairless rat, 71 days after: n = 5, Average ± S.D.; for Hair removal score of hairless rat, 71 days after: 10% in PEG1000 applied to back once a day for 12 days, 71st day after application was terminated, score 1-5 (lower = less hair removal); for Activity of preventing hair removal (in words): hairless rats, 10% in PEG1000, once a day for 12 days
Source text: 4-week old male hairless rats in the pilose period were used for evaluating the activity of preventing hair removal. The same samples as those used in Example 1 were used. In each group of five hairless rats, each of the samples was applied to the back of each rat once a day for 12 days, and then a hair removal state was observed after the application was stopped. The hair removal state was observed based on the following scores.
1; No hair removal was observed.
2; Hair became short in 30% or less of the applied region.

SMILES | Hair growth score of C3H mouse, before application (C3H mice) | Hair growth score of C3H mouse, after application (C3H mice) | Hair restoration activity (in words) (C3H mice) | Hair removal score of hairless rat, before application (hairless rats) | Hair removal score of hairless rat, 71 days after (hairless rats) | Activity of preventing hair removal (in words) (hairless rats)
COc1c(O)c(C)c(C/C=C(\C)CC/C=C(\C)CC/C=C(\C)CC/C=C(\C)CC/C=C(\C)CC/C=C(\C)CC/C=C(\C)CC/C=C(\C)CC/C=C(\C)CCC=C(C)C)c(O)c1OC [Reduced coenzyme Q10, reduced coenzyme Q10] | 1.0 ± 0.00 | 3.2 ± 0.64 | a higher hair restoration activity was observed | 1.0 ± 0.00 | 3.0 ± 0.71 | has the activity of preventing hair removal
COC1=C(OC)C(=O)C(C/C=C(\C)CC/C=C(\C)CC/C=C(\C)CC/C=C(\C)CC/C=C(\C)CC/C=C(\C)CC/C=C(\C)CC/C=C(\C)CC/C=C(\C)CCC=C(C)C)=C(C)C1=O [Oxidized coenzyme Q10, oxidized coenzyme Q10] | 1.0 ± 0.00 | 2.7 ± 0.35 | a hair restoration activity was observed | 1.0 ± 0.00 | 3.6 ± 0.24 | has the activity of preventing hair removal
